# Test results reported in patent US20140219995A1, “INHIBITORS OF BACTERIAL TYPE III SECRETION SYSTEM” (priority 2011, published 2014).
# Where two headings read alike, the source gives them in different places.
# How the values were obtained:
# [1] = tested on: T3SS-mediated secretion of ExoS′-βLA fusion protein, P. aeruginosa strain MDM973; assay: Effector-β-lactamase (ExoS′-βLA) secretion assay; assay type: cell-based, Pseudomonas aeruginosa; settings: for IC50: Pseudomonas aeruginosa
# Source text: Effector-β-Lactamase (βLA) Secretion Assays.
# P. aeruginosa. A gene encoding an ExoS'-β-lactamase (βLA) fusion protein (comprised of 234 codons of P. aeruginosa effector ExoS fused to the TEM-1 β-lactamase gene lacking secretion signal codons) was constructed by splicing by overlap extension PCR (SOE-PCR) (Choi and Schweizer, 2005, BMC Microbiol., 5:30) using primers 5-10 (Table 3, above), sequence confirmed, cloned into lacI^Q-containing GATEWAY® vector pUCP24GW (see Moir, et al., 2007, J Biomol. Screen., 12:855-64) behind the lac promoter, and introduced into P. aeruginosa by electroporation (see Choi, et al., 2006, J. Microbiol. Methods, 64:391-7). Secretion of fusion proteins was detected by measuring the hydrolysis of the chromogenic β-lactamase substrate nitrocefin in clear 96-well microplates in a modification of a previously described assay (Lee, et al., 2007, Infect. Immun., 75:1089-98). Cells of strain MDM973 (PAK/pUCP24GW-exoS:blaM) were sub-cultured in the morning from overnight growths in LBG into 0.1 ml of LBGIE with or without test compounds and grown for 150 min. Nitrocefin (100 μg/ml final) was added, and A490 measurements taken every minute for 15 min in a Victor^3V 1420 Multilabel HTS Counter (PerkinElmer). Slopes were calculated as a relative measure of the quantity of the effector-βLA fusion protein secreted and were absolutely dependent on induction with IPTG, EGTA, and the presence of a functional pscC gene in the P. aeruginosa cells. Typical signal:background ratios were 6-10.
# [2] = tested on: T3SS-mediated cytotoxicity of translocated effector protein ExoU in CHO cells; assay: Inhibition of P. aeruginosa ExoU-dependent CHO cell killing (translocation, LDH release); assay type: cell-based; settings: Pseudomonas aeruginosa
# Source text: Inhibition of P. aeruginosa ExoU-Dependent CHO Cell Killing.
# Pseudolipasin, which acts by direct inhibition of the ExoU phospholipase, was used as control inhibitor (Lee, et al, 2007, Infect. Immun., 75:1089-98).
# [3] = read-out: Avg. Translocation IC50
SMILES,IC50 ([1]; read-out: Avg. Secretion IC50),melting point,"IC50 [2, 3]",further results
O=C(COc1ccc(Cl)cc1Cl)NCc1ccc2c(c1)OCO2 [MBX-1668],> 100 µM,117 °C,,effect of structural alteration on T3SS-mediated secretion inhibition ([1]; vs. MBX-1641): significantly inferior performance
C[C@@H](Oc1ccc(Cl)cc1Cl)C(=O)NCc1ccc2c(c1)OCO2 [MBX-1684],3.7 µM,,,
CC(C)(Oc1ccc(Cl)cc1Cl)C(=O)NCc1ccc2c(c1)OCO2 [MBX-1685],> 100 µM,92 °C,,effect of structural alteration on T3SS-mediated secretion inhibition ([1]; vs. MBX-1641): significantly inferior performance
COc1ccc(CNC(=O)C(C)Oc2ccc(Cl)cc2Cl)cc1 (stereo not drawn) [MBX-1940],,76 °C,12.5 µM,
COc1cccc(CNC(=O)C(C)Oc2ccc(Cl)cc2Cl)c1 (stereo not drawn) [MBX-1941],17.2 µM,119 °C,,
COc1ccc(CNC(=O)C(C)Oc2ccc(Cl)cc2Cl)cc1OC (stereo not drawn) [MBX-1942],,127 °C,> 100 µM,
COc1cc(CNC(=O)C(C)Oc2ccc(Cl)cc2Cl)cc(OC)c1 (stereo not drawn) [MBX-1943],18.8 µM,111 °C,23.7 µM,
COc1cc(CNC(=O)C(C)Oc2ccc(Cl)cc2Cl)cc(OC)c1OC (stereo not drawn) [MBX-1944],55.5 µM,119 °C,> 100 µM,
COc1ccc(OC)c(CNC(=O)C(C)Oc2ccc(Cl)cc2Cl)c1 (stereo not drawn) [MBX-1947],34.8 µM,67 °C,> 100 µM,
COc1cccc(CNC(=O)C(C)Oc2ccc(Cl)cc2Cl)c1OC (stereo not drawn) [MBX-1948],10.1 µM,130 °C,> 100 µM,
COc1ccc(CNC(=O)C(C)Oc2ccc(Cl)cc2Cl)c(OC)c1 (stereo not drawn) [MBX-1949],16.9 µM,117 °C,,
Cc1ccccc1CNC(=O)C(C)Oc1ccc(Cl)cc1Cl (stereo not drawn) [MBX-1951],,128 °C,66.7 µM,
CC(Oc1ccc(Cl)cc1Cl)C(=O)NCc1ccccc1Cl (stereo not drawn) [MBX-1956],,113 °C,52.3 µM,
CC(Oc1ccc(Cl)cc1Cl)C(=O)NCc1ccccc1N(C)C (stereo not drawn) [MBX-1959],18.6 µM,85 °C,60 µM,
CC(Oc1ccc(Cl)cc1Cl)C(=O)NCc1cccc(N(C)C)c1 (stereo not drawn) [MBX-1960],12.2 µM,108 °C,58 µM,
CC(Oc1ccc(Cl)cc1Cl)C(=O)NCc1ccc(N2CCCC2=O)cc1 (stereo not drawn) [MBX-1987],18.8 µM,138 °C,20 µM,
CC(Oc1ccc(Cl)cc1Cl)C(=O)NCc1ccc2c(c1)n(C)c(=O)n2C (stereo not drawn) [MBX-1996],25.5 µM,180 °C,> 100 µM,
COc1cc2c(cc1CNC(=O)C(C)Oc1ccc(Cl)cc1Cl)OCCO2 (stereo not drawn) [MBX-1998],17.6 µM,152 °C,51.4 µM,
CC(Oc1ccc(Cl)cc1Cl)C(=O)NCc1ccc2c(c1)OCCCO2 (stereo not drawn) [MBX-1999],23.9 µM,115 °C,> 100 µM,
CC(Oc1ccc(Cl)cc1Cl)C(=O)NCc1ccc2c(c1)CCCN2C (stereo not drawn) [MBX-2000],25.7 µM,119 °C,> 100 µM,
CC1Cc2cc(CNC(=O)C(C)Oc3ccc(Cl)cc3Cl)ccc2O1 (stereo not drawn) [MBX-2001],14 µM,100 °C,84 µM,
CC(Oc1ccc(Cl)cc1Cl)C(=O)NCc1ccc(-c2ccccc2)cc1 (stereo not drawn) [MBX-2022],100 µM,114 °C,,
CC(Oc1ccc(F)cc1Cl)C(=O)NCc1ccc2c(c1)OCO2 (stereo not drawn) [MBX-2026],,95 °C,,
COc1ccc(CNC(=O)C(C)Oc2ccc(F)cc2Cl)cc1OC (stereo not drawn) [MBX-2027],100 µM,101 °C,,

SMILES,IC50 ([1]; read-out: Avg. Secretion IC50),melting point,"IC50 [2, 3]",further results
COc1ccc(CNC(=O)C(C)Oc2ccc(F)cc2Cl)cc1 (stereo not drawn) [MBX-2028],75.3 µM,97 °C,> 100 µM,
CC(C)C(Oc1ccc(Cl)cc1Cl)C(=O)NCc1ccc2c(c1)OCO2 (stereo not drawn) [MBX-2146],,,,effect of structural alteration on T3SS-mediated secretion inhibition ([1]; vs. MBX-1641): significantly inferior performance
CC(Oc1ccc(Cl)cc1Cl)C(=O)N(C)Cc1ccc2c(c1)OCO2 (stereo not drawn) [MBX-2160],10.1 µM,,24.3 µM,effect of structural alteration on T3SS-mediated secretion inhibition ([1]; vs. MBX-1641): slightly negative impact
CC(Sc1ccc(Cl)cc1Cl)C(=O)NCc1ccc2c(c1)OCO2 (stereo not drawn) [MBX-2161],5 µM,137 °C,,IC50 values lower (T3SS secretion inhibition) ([1]; vs. MBX-1641): 29%
CC(Sc1ccc(Cl)cc1Cl)C(=O)NCc1ccc(F)cc1 (stereo not drawn) [MBX-2164],4 µM,142 °C,,
CC(Oc1ccc(Cl)cc1Cl)C(=O)N1CCc2cc3c(cc2C1)OCO3 (stereo not drawn) [MBX-2188],114 µM,,,IC50 ([1]; read-out: Secretion IC50): 114 µM
CC(Oc1ccc(Cl)cc1Cl)C(=O)N1CCc2cc(F)ccc2C1 (stereo not drawn) [MBX-2189],111 µM,,,IC50 ([1]; read-out: Secretion IC50): 111 µM
CC(Oc1ccc(Cl)cc1Cl)C(=O)N1CCc2ccc(F)cc2C1 (stereo not drawn) [MBX-2190],95.6 µM,,> 100 µM,IC50 ([1]; read-out: Secretion IC50): 95.6 µM; IC50 ([2]; read-out: Translocation IC50): ≥ 100 µM
COc1ccc(CNC(=O)C(C)Nc2ccc(Cl)cc2Cl)cc1OC (stereo not drawn) [MBX-2213],58.7 µM,132 °C,,
COc1ccc(CNC(=O)C(C)Nc2ccc(Cl)cc2Cl)cc1 (stereo not drawn) [MBX-2214],24.5 µM,125 °C,,
CC(Nc1ccc(Cl)cc1Cl)C(=O)NCc1ccc(F)cc1 (stereo not drawn) [MBX-2215],17.2 µM,,,
CC(Oc1ccc(Cl)cc1Cl)C(=O)NCCCc1ccc(F)cc1 (stereo not drawn) [MBX-2622],> 100 µM,112 °C,,
CC(Oc1ccc(Cl)cc1Cl)C(=O)NC(CO)c1ccc(F)cc1 (stereo not drawn) [MBX-2625],5 µM,,,
"CC(Oc1ccc(Cl)cc1Cl)c1nc(-c2ccc(F)cc2)no1 (stereo not drawn) [MBX-2667, 5-[1-(2,4-dichlorophenoxy)ethyl]-3-(4-fluorophenyl)-1,2,4-oxadiazole]",> 100 µM,77 °C,,
CC(Oc1ccc(Cl)cc1Cl)C(=O)NCc1ccc(F)nc1 (stereo not drawn) [MBX-2677],40 µM,55 °C,,
COC(=O)C(NC(=O)C(C)Oc1ccc(Cl)cc1Cl)c1ccc(F)cc1 (stereo not drawn) [MBX-2705],6 µM,84 °C,,
CC(Oc1ccc(Cl)cc1Cl)C(=O)NC(C(=O)O)c1ccc(F)cc1 (stereo not drawn) [MBX-2707],> 100 µM,160 °C,,
"CC(Oc1ccc(Cl)cc1Cl)c1nc(Cc2ccc(F)cc2)no1 (stereo not drawn) [MBX-2708, 5-[1-(2,4-dichlorophenoxy)ethyl]-3-(4-fluorobenzyl)-1,2,4-oxadiazole]",> 100 µM,,,
CC(Oc1ccc(Cl)cc1Cl)C(=O)NCc1cnc2[nH]ccc2c1 (stereo not drawn) [MBX-2709],8.8 µM,198 °C,,
CC(Oc1ncc(Cl)cc1Cl)C(=O)NCc1ccc(C2(C(F)(F)F)N=N2)cc1 (stereo not drawn) [MBX-2713],> 100 µM,112 °C,,
"CC(Oc1ccc(Cl)cc1Cl)C(=O)OCCc1ccc(F)cc1 (stereo not drawn) [MBX-2717, 4-fluorophenethyl 2-(2,4-dichlorophenoxy)propanoate]",> 100 µM,,,
CC(Oc1ccc(Cl)cc1Cl)C(=O)NCc1ccc(C2(C(F)(F)F)N=N2)cc1 (stereo not drawn) [MBX-2718],> 100 µM,117 °C,,
"CC(Oc1ccc(Cl)cc1Cl)C(=O)CCc1ccc(F)cc1 (stereo not drawn) [MBX-2719, 4-(2,4-dichlorophenoxy)-1-(4-fluorophenyl)pentan-3-one]",> 100 µM,,,
